According to ChEMBL document CHEMBL1130125, “beta-Methylation of the Phe7 and Trp9 melanotropin side chain pharmacophores affects ligand-receptor interactions and prolonged biological activity” (J Med Chem, 1997):

Legend:
[1] = Decrease in lizard skin reflectivity ([…] activity).; type: functional
[2] = target: frog skin melanocortin receptor (Rana pipiens); assay: Decrease in frog skin reflectivity ([…] activity).
[3] = test system: lizard; assay: Relative potency compared to alpha MSH in a lizard skin bioassay.; type: functional
[4] = test system: frog skin melanocortin receptor (Rana pipiens); assay: Relative potency compared to alpha MSH in a frog skin bioassay.

Row | Structure (SMILES) | EC50 [1] | EC50 [2] | Relative potency [3] | Relative potency [4]
1 | CCCC[C@H](NC(=O)[C@H](CO)NC(=O)[C@H](Cc1ccc(O)cc1)NC(=O)[C@H](CO)NC(C)=O)C(=O)N[C@@H](CCC(=O)O)C(=O)N[C@@H](Cc1c[nH]cn1)C(=O)N[C@H](C(=O)N[C@@H](CCCN=C(N)N)C(=O)N[C@@H](Cc1c[nH]c2ccccc12)C(=O)NCC(=O)N[C@@H](CCCCN)C(=O)N1CCC[C@H]1C(=O)N[C@H](C(N)=O)C(C)C)[C@H](C)c1ccccc1 | 1 nM | – | – | –
2 | CCCC[C@H](NC(=O)[C@H](CO)NC(=O)[C@H](Cc1ccc(O)cc1)NC(=O)[C@H](CO)NC(C)=O)C(=O)N[C@@H](CCC(=O)O)C(=O)N[C@@H](Cc1c[nH]cn1)C(=O)N[C@H](C(=O)N[C@@H](CCCN=C(N)N)C(=O)N[C@@H](Cc1c[nH]c2ccccc12)C(=O)NCC(=O)N[C@@H](CCCCN)C(=O)N1CCC[C@H]1C(=O)N[C@H](C(N)=O)C(C)C)[C@@H](C)c1ccccc1 | 3.33 nM | – | – | –
3 | CCCC[C@H](NC(C)=O)C(=O)N[C@H]1CC(=O)NCCCC[C@@H](C(N)=O)NC(=O)[C@H]([C@@H](C)c2c[nH]c3ccccc23)NC(=O)[C@H](CCCN=C(N)N)NC(=O)[C@@H](Cc2ccccc2)NC(=O)[C@H](Cc2c[nH]cn2)NC1=O | 1 nM | – | – | –
4 | CCCC[C@H](NC(C)=O)C(=O)N[C@H]1CC(=O)NCCCC[C@@H](C(N)=O)NC(=O)[C@H]2Cc3c([nH]c4ccccc34)CN2C(=O)[C@H](CCCNC(=N)N)NC(=O)[C@@H](Cc2ccccc2)NC(=O)[C@H](Cc2cnc[nH]2)NC1=O | 11.1 nM | 1 nM | – | –
5 | CCCC[C@H](NC(C)=O)C(=O)N[C@H]1CC(=O)NCCCC[C@@H](C(N)=O)NC(=O)[C@@H]2Cc3c([nH]c4ccccc34)CN2C(=O)[C@H](CCCNC(=N)N)NC(=O)[C@@H](Cc2ccccc2)NC(=O)[C@H](Cc2cnc[nH]2)NC1=O | 20 nM | 3.33 nM | – | –
6 | CCCC[C@H](NC(C)=O)C(=O)N[C@H]1CC(=O)NCCCC[C@H](C(N)=O)NC(=O)[C@H]([C@@H](C)c2c[nH]c3ccccc23)NC(=O)[C@H](CCCN=C(N)N)NC(=O)[C@@H](Cc2ccccc2)NC(=O)[C@H](Cc2c[nH]cn2)NC1=O | – | – | 1 | 0.23
7 | CCCC[C@H](NC(C)=O)C(=O)N[C@H]1CC(=O)NCCCCC(C(N)=O)NC(=O)[C@H](Cc2c[nH]c3ccccc23)NC(=O)[C@H](CCCN=C(N)N)NC(=O)[C@@H]([C@@H](C)c2ccccc2)NC(=O)[C@H](Cc2c[nH]cn2)NC1=O (single isomer, unassigned) | 0.3 nM | 2 nM | 3.3 | 0.05
8 | CCCC[C@H](NC(C)=O)C(=O)N[C@H]1CC(=O)NCCCCC(C(N)=O)NC(=O)[C@H](Cc2c[nH]c3ccccc23)NC(=O)[C@H](CCCN=C(N)N)NC(=O)C([C@@H](C)c2ccccc2)NC(=O)[C@H](Cc2c[nH]cn2)NC1=O (single isomer, unassigned) | 3.44 nM | 6.25 nM | 0.29 | 0.016
9 | CCCC[C@H](NC(C)=O)C(=O)N[C@H]1CC(=O)NCCCCC(C(N)=O)NC(=O)[C@H]([C@H](C)c2c[nH]c3ccccc23)NC(=O)[C@H](CCCN=C(N)N)NC(=O)C(Cc2ccccc2)NC(=O)[C@H](Cc2c[nH]cn2)NC1=O (single isomer, unassigned) | 6.67 nM | – | 0.15 | 0.004
10 | CCCC[C@H](NC(C)=O)C(=O)N[C@H]1CC(=O)NCCCCC(C(N)=O)NC(=O)[C@H](Cc2c[nH]c3ccccc23)NC(=O)[C@H](CCCN=C(N)N)NC(=O)[C@@H]([C@H](C)c2ccccc2)NC(=O)[C@H](Cc2c[nH]cn2)NC1=O (single isomer, unassigned; 5) [listing 1 of 2 here] | 0.2 nM | 6.25 nM | – | –
11 | CCCC[C@H](NC(C)=O)C(=O)N[C@H]1CC(=O)NCCCCC(C(N)=O)NC(=O)[C@H](Cc2c[nH]c3ccccc23)NC(=O)[C@H](CCCN=C(N)N)NC(=O)[C@@H]([C@H](C)c2ccccc2)NC(=O)[C@H](Cc2c[nH]cn2)NC1=O (single isomer, unassigned; 5) [listing 2 of 2 here] | – | – | 5 | 0.016
12 | CCCC[C@H](NC(C)=O)C(=O)N[C@H]1CC(=O)NCCCCC(C(N)=O)NC(=O)[C@H](Cc2c[nH]c3ccccc23)NC(=O)[C@H](CCCN=C(N)N)NC(=O)[C@@H]([C@H](C)c2ccccc2)NC(=O)[C@H](Cc2c[nH]cn2)NC1=O (single isomer, unassigned; 7) [listing 1 of 2 here] | 20 nM | 16.7 nM | – | –
13 | CCCC[C@H](NC(C)=O)C(=O)N[C@H]1CC(=O)NCCCCC(C(N)=O)NC(=O)[C@H](Cc2c[nH]c3ccccc23)NC(=O)[C@H](CCCN=C(N)N)NC(=O)[C@@H]([C@H](C)c2ccccc2)NC(=O)[C@H](Cc2c[nH]cn2)NC1=O (single isomer, unassigned; 7) [listing 2 of 2 here] | – | – | 0.05 | 0.006
14 | CCCC[C@H](NC(C)=O)C(=O)N[C@H]1CC(=O)NCCCCC(C(N)=O)NC(=O)C([C@H](C)c2c[nH]c3ccccc23)NC(=O)[C@H](CCCN=C(N)N)NC(=O)C(Cc2ccccc2)NC(=O)[C@H](Cc2c[nH]cn2)NC1=O (single isomer, unassigned; 10) [listing 1 of 2 here] | 1.43 nM | 0.06 nM | – | –
15 | CCCC[C@H](NC(C)=O)C(=O)N[C@H]1CC(=O)NCCCCC(C(N)=O)NC(=O)C([C@H](C)c2c[nH]c3ccccc23)NC(=O)[C@H](CCCN=C(N)N)NC(=O)C(Cc2ccccc2)NC(=O)[C@H](Cc2c[nH]cn2)NC1=O (single isomer, unassigned; 10) [listing 2 of 2 here] | – | – | 0.7 | 1.6
16 | CCCC[C@H](NC(C)=O)C(=O)N[C@H]1CC(=O)NCCCCC(C(N)=O)NC(=O)C([C@H](C)c2c[nH]c3ccccc23)NC(=O)[C@H](CCCN=C(N)N)NC(=O)C(Cc2ccccc2)NC(=O)[C@H](Cc2c[nH]cn2)NC1=O (single isomer, unassigned; 11) [listing 1 of 2 here] | 1 nM | 0.33 nM | – | –
17 | CCCC[C@H](NC(C)=O)C(=O)N[C@H]1CC(=O)NCCCCC(C(N)=O)NC(=O)C([C@H](C)c2c[nH]c3ccccc23)NC(=O)[C@H](CCCN=C(N)N)NC(=O)C(Cc2ccccc2)NC(=O)[C@H](Cc2c[nH]cn2)NC1=O (single isomer, unassigned; 11) [listing 2 of 2 here] | – | – | 1 | 0.3
18 | CCCC[C@H](NC(=O)[C@H](CO)NC(=O)[C@H](Cc1ccc(O)cc1)NC(=O)[C@H](CO)NC(C)=O)C(=O)N[C@@H](CCC(=O)O)C(=O)N[C@@H](Cc1c[nH]cn1)C(=O)N[C@@H](C(=O)N[C@@H](CCCN=C(N)N)C(=O)N[C@@H](Cc1c[nH]c2ccccc12)C(=O)NCC(=O)N[C@@H](CCCCN)C(=O)N1CCC[C@H]1C(=O)N[C@H](C(N)=O)C(C)C)[C@@H](C)c1ccccc1 (stereo in doubt; 16) | 0.5 nM | – | – | –
19 | CCCC[C@H](NC(=O)[C@H](CO)NC(=O)[C@H](Cc1ccc(O)cc1)NC(=O)[C@H](CO)NC(C)=O)C(=O)N[C@@H](CCC(=O)O)C(=O)N[C@@H](Cc1c[nH]cn1)C(=O)N[C@@H](C(=O)N[C@@H](CCCN=C(N)N)C(=O)N[C@@H](Cc1c[nH]c2ccccc12)C(=O)NCC(=O)N[C@@H](CCCCN)C(=O)N1CCC[C@H]1C(=O)N[C@H](C(N)=O)C(C)C)[C@@H](C)c1ccccc1 (stereo in doubt; 17) | 1 nM | – | – | –
